Among the data in patent publication US8080657B2, “Compounds of reverse turn mimetics and the use thereof” (Choongwae Pharma Corporation, priority 2008, dated 2011) are IC50 values, retold here.

The first experiment deals with Wnt signaling. The experiment can be described thus: TopFlash reporter gene bioassay in SW480 cells. The format is cell-based. The note with it: Homo sapiens, SW480, TopFlash reporter gene assay, inhibition of Wnt signaling; read-out: RGA, IC50 (μM) TopF. A general note: In a reporter assay the amount or activity of a reporter protein is the signal.
By IC50 is commonly meant the concentration at which inhibition is half-maximal. `C=CCN1CC(=O)N2[C@@H](Cc3ccc(O)cc3)C(=O)N(Cc3cccc(-c4cccnc4)c3)C[C@@H]2N1C(=O)NCc1ccccc1` [compound 12]: the IC50 is 0.34 ± 0.12 µM.

On to `C=CCN1CC(=O)N2[C@@H](Cc3ccc(O)cc3)C(=O)N(Cc3cn(S(=O)(=O)c4ccc(C)cc4)c4ccccc34)C[C@@H]2N1C(=O)NCc1ccccc1` [compound 211], for which the IC50 is 3.61 ± 0.47 µM.

For `C=CCN1CC(=O)N2[C@@H](Cc3ccc(O)cc3)C(=O)N(Cc3cccc4c(Cl)c[nH]c34)C[C@@H]2N1C(=O)NCc1ccccc1` [compound 19], the IC50 was 0.43 ± 0.08 µM.

Regarding `C=CCN1CC(=O)N2[C@@H](Cc3ccc(O)cc3)C(=O)N(Cc3cccnc3Br)C[C@@H]2N1C(=O)NCc1ccccc1` [compound 125], the IC50 was 1.57 ± 0.29 µM.

For the molecule `C=CCN1CC(=O)N2[C@@H](Cc3ccc(O)cc3)C(=O)N(Cc3cccc4c(C)c(-c5ccccc5F)n(S(=O)(=O)c5ccccc5)c34)C[C@@H]2N1C(=O)NCc1ccccc1` [compound 63], the IC50 came to 0.82 ± 0.25 µM.

Regarding `C=CCN1CC(=O)N2[C@@H](Cc3ccc(O)cc3)C(=O)N(Cc3cccc(NC=O)c3)C[C@@H]2N1C(=O)NCc1ccccc1` [compound 57], the IC50 was determined as 0.76 ± 0.12 µM.

As to `C=CCN1CC(=O)N2[C@@H](Cc3ccc(OCC(O)CO)cc3)C(=O)N(Cc3cccc4scnc34)C[C@@H]2N1C(=O)NCc1ccccc1` (stereo partly shown) [compound 222], the IC50 turned out to be 36.4 ± 2 µM.

For the molecule `C=CCN1CC(=O)N2[C@@H](Cc3ccc(O)cc3)C(=O)N(Cc3cccc(-c4ccc(O)cc4)n3)C[C@@H]2N1C(=O)NCc1ccccc1` [compound 248], the IC50 came to 6.71 ± 1.57 µM.

For the molecule `C=CCN1CC(=O)N2[C@@H](Cc3ccc(O)cc3)C(=O)N(Cc3cccc(OC)c3OC3CCCC3)C[C@@H]2N1C(=O)NCc1ccccc1` [compound 139], the IC50 was determined as 1.89 ± 0.38 µM.

As for `C=CCN1CC(=O)N2[C@@H](Cc3ccc(O)cc3)C(=O)N(Cc3cccc4c(C#N)cn(S(=O)(=O)c5ccccc5)c34)C[C@@H]2N1C(=O)NCc1ccccc1` [compound 11], the IC50 turned out to be 0.31 ± 0.09 µM.

As to `C=CCN1CC(=O)N2[C@@H](Cc3ccc(O)cc3)C(=O)N(Cc3ccc(F)c4scnc34)C[C@@H]2N1C(=O)NCCc1cccs1` [compound 104], the half-maximal inhibitory concentration (IC50) was 1.27 ± 0.1 µM.

As for `C=CCOc1ccccc1CN1C[C@H]2N(C(=O)CN(CC=C)N2C(=O)NCc2ccccc2)[C@@H](Cc2ccc(O)cc2)C1=O` [compound 145], the IC50 came out at 1.96 ± 0.27 µM.

`C=CCN1CC(=O)N2[C@@H](Cc3ccc(O)cc3)C(=O)N(Cc3cccc(OC)c3OC3Cc4ccccc4C3)C[C@@H]2N1C(=O)NCc1ccccc1` [compound 226]: the IC50 worked out at 4.33 ± 0.5 µM.

Regarding `C=CCN1CC(=O)N2[C@@H](Cc3ccc(O)cc3)C(=O)N(Cc3cccc(-c4ccc(S(C)(=O)=O)cc4)n3)C[C@@H]2N1C(=O)NCc1ccccc1` [compound 261], the IC50 amounted to 8.48 ± 0.9 µM.

In the case of `C=CCN1CC(=O)N2[C@@H](Cc3ccc(O)cc3)C(=O)N(Cc3cccc(C(=O)NCC4CC4)c3)C[C@@H]2N1C(=O)NCc1ccccc1` [compound 25], the IC50 was determined as 0.52 ± 0.04 µM.

As for `C=CCN1CC(=O)N2[C@@H](Cc3ccc(O)cc3)C(=O)N(Cc3ccc(F)c(Br)c3)C[C@@H]2N1C(=O)NCc1ccccc1` [compound 16], the IC50 was 0.39 ± 0.05 µM.

As for `C=CCN1CC(=O)N2[C@@H](Cc3ccc(O)cc3)C(=O)N(Cc3csc4cc(NS(N)(=O)=O)ccc34)C[C@@H]2N1C(=O)NCc1ccccc1` [compound 202], the IC50 is 28.8 ± 5.69 µM.

As to `C=CCN1CC(=O)N2[C@@H](Cc3ccc(O)cc3)C(=O)N(Cc3ccccc3[N+](=O)[O-])C[C@@H]2N1C(=O)NCc1ccccc1` [compound 30], the 50% inhibitory concentration (IC50) turned out to be 0.54 ± 0.06 µM.

Regarding `C=CCN1CC(=O)N2[C@@H](Cc3ccc(O)cc3)C(=O)N(Cc3ccc([N+](=O)[O-])c(O)c3)C[C@@H]2N1C(=O)NCc1ccccc1` [compound 259], the IC50 was 7.62 ± 1.89 µM.

For `C=CCN1CC(=O)N2[C@@H](Cc3ccc(O)cc3)C(=O)N(Cc3cccc(-c4ccncc4)c3)C[C@@H]2N1C(=O)NCc1ccccc1` [compound 34], the IC50 amounted to 0.58 ± 0.132 µM.

For `C=CCN1CC(=O)N2[C@@H](Cc3ccc(O)cc3)C(=O)N(Cc3cccc(C(C)=O)c3)C[C@@H]2N1C(=O)NCc1ccccc1` [compound 73], the IC50 stood at 0.9 ± 0.27 µM.

On to `C=CCN1CC(=O)N2[C@@H](Cc3ccc(O)cc3)C(=O)N(Cc3cccc4ccn(Cc5cccc(N)c5)c34)C[C@@H]2N1C(=O)NCc1ccccc1` [compound 213], for which the IC50 was 3.62 ± 0.65 µM.

With `C=CCN1CC(=O)N2[C@@H](Cc3ccc(O)cc3)C(=O)N(Cc3cccc4c3ncn4CCC)C[C@@H]2N1C(=O)NCc1ccccc1` [compound 71], the IC50 was found to be 0.9 ± 0.08 µM.

On to `C=CCN1CC(=O)N2[C@@H](Cc3ccc(O)cc3)C(=O)N(Cc3cccc(C(=O)N4CC=CC4)c3)C[C@@H]2N1C(=O)NCc1ccccc1` [compound 239], for which the concentration for half-maximal inhibition (IC50) is 5.09 ± 1.32 µM.

In the case of `C=CCN1CC(=O)N2[C@@H](Cc3ccc(O)cc3)C(=O)N(Cc3cccc(-c4ccc(OC)cc4)c3)C[C@@H]2N1C(=O)NCc1ccccc1` [compound 140], the IC50 came to 1.91 ± 0.24 µM.

For the molecule `C=CCN1CC(=O)N2[C@@H](Cc3ccc(O)cc3)C(=O)N(Cc3ccccc3OC(F)F)C[C@@H]2N1C(=O)NCc1ccccc1` [compound 58], the half-inhibitory concentration (IC50) stood at 0.78 ± 0.13 µM.

In the case of `C=CCN1CC(=O)N2[C@@H](Cc3ccc(O)cc3)C(=O)N(Cc3csc4cc(NC(C)=O)ccc34)C[C@@H]2N1C(=O)NCc1ccccc1` [compound 142], the half-maximal inhibitory concentration (IC50) was found to be 1.92 ± 0.28 µM.

Turning to `C=CCN1CC(=O)N2[C@@H](Cc3ccc(O)cc3)C(=O)N(Cc3cccc4c3ncn4C(=O)CN)C[C@@H]2N1C(=O)NCc1ccccc1` [compound 37], the IC50 stood at 0.6 ± 0.13 µM.

Turning to `C=CCN1CC(=O)N2[C@@H](Cc3ccc(O)cc3)C(=O)N(Cc3cccc(-c4ccsc4)c3)C[C@@H]2N1C(=O)NCc1ccccc1` [compound 72], the IC50 stood at 0.9 ± 0.13 µM.

As for `C=CCN1CC(=O)N2[C@@H](Cc3ccc(O)cc3)C(=O)N(Cc3cccc(C4CC4)n3)C[C@@H]2N1C(=O)NCc1ccccc1` [compound 95], the 50% inhibitory concentration (IC50) amounted to 1.1 ± 0.12 µM.

Turning to `C=CCN1CC(=O)N2[C@@H](Cc3ccc(O)cc3)C(=O)N(Cc3cccc(C#N)c3F)C[C@@H]2N1C(=O)NCc1ccccc1` [compound 97], the IC50 was 1.13 ± 0.05 µM.

On to `C=CCN1CC(=O)N2[C@@H](Cc3ccc(O)cc3)C(=O)N(Cc3cccc(-c4cccnc4F)c3)C[C@@H]2N1C(=O)NCc1ccccc1` [compound 7], for which the IC50 came to 0.26 ± 0.08 µM.

Regarding `C=CCN1CC(=O)N2[C@@H](Cc3ccc(O)cc3)C(=O)N(Cc3ccc(N)c([N+](=O)[O-])c3)C[C@@H]2N1C(=O)NCc1ccccc1` [compound 254], the IC50 turned out to be 7.13 ± 1.35 µM.

In the case of `C=CCN1CC(=O)N2[C@@H](Cc3ccc(O)cc3)C(=O)N(Cc3ccc(F)c4scnc34)C[C@@H]2N1C(=O)NCc1ccc(C)cc1` [compound 103], the concentration for half-maximal inhibition (IC50) was determined as 1.26 ± 0.19 µM.

In the case of `C=CCN1CC(=O)N2C(Cc3ccc(O)cc3)C(=O)N(Cc3ccccc3N3CCNCC3)CC2N1C(=O)NCc1ccccc1` (stereo not shown) [compound 221], the IC50 is 36.1 ± 2.69 µM.

On to `C=CCN1CC(=O)N2[C@@H](Cc3ccc(O)cc3)C(=O)N(Cc3cccc(Br)c3)C[C@@H]2N1C(=O)NCc1ccccc1` [compound 52], for which the IC50 turned out to be 0.73 ± 0.09 µM.

On to `C=CCN1CC(=O)N2[C@@H](Cc3ccc(O)cc3)C(=O)N(Cc3csc4ccc(NCc5ccccc5)cc34)C[C@@H]2N1C(=O)NCc1ccccc1` [compound 55], for which the IC50 is 0.74 ± 0.08 µM.

Turning to `C=CCN1CC(=O)N2[C@@H](Cc3ccc(O)cc3)C(=O)N(Cc3cccc(C(=O)OC)c3)C[C@@H]2N1C(=O)NCc1ccccc1` [compound 46], the IC50 was 0.69 ± 0.15 µM.

On to `C=CCN1CC(=O)N2[C@@H](Cc3ccc(O)cc3)C(=O)N(Cc3cccc(-c4ncc[nH]4)c3)C[C@@H]2N1C(=O)NCc1ccccc1` [compound 209], for which the half-inhibitory concentration (IC50) is 3.3 ± 0.58 µM.

For the molecule `C=CCN1CC(=O)N2[C@@H](Cc3ccc(O)cc3)C(=O)N(Cc3cccc(OC)c3OS(=O)(=O)c3ccc(Cl)cc3)C[C@@H]2N1C(=O)NCc1ccccc1` [compound 105], the IC50 worked out at 1.27 ± 0.24 µM.

Take `C=CCN1CC(=O)N2[C@@H](Cc3ccc(O)cc3)C(=O)N(Cc3cccc(OC)c3OCC3CC3)C[C@@H]2N1C(=O)NCc1ccccc1` [compound 79]: the IC50 came to 0.95 ± 0.21 µM.

For `C=CCN1CC(=O)N2[C@@H](Cc3ccc(O)cc3)C(=O)N(Cc3cccc4c3ccn4S(=O)(=O)c3ccc(C)cc3)C[C@@H]2N1C(=O)NCc1ccccc1` [compound 47], the IC50 is 0.69 ± 0.19 µM.

As for `C=CCN1CC(=O)N2[C@@H](Cc3ccc(O)cc3)C(=O)N(Cc3cccc4c(=O)ccoc34)C[C@@H]2N1C(=O)NCc1ccccc1` [compound 87], the IC50 stood at 1.01 ± 0.24 µM.

Staying with this experiment, now noted: Homo sapiens, SW480; read-out: RGA, IC50 (μM) TopF.
`C=CCN1CC(=O)N2[C@@H](Cc3ccc(OP(=O)(O)O)cc3)C(=O)N(Cc3csc4cc(N)ccc34)C[C@@H]2N1C(=O)NCc1ccccc1` [compound 24]: the half-maximal inhibitory concentration (IC50) was determined as 0.48 ± 0.11 µM.

With `C=CCN1CC(=O)N2[C@@H](Cc3ccc(O)cc3)C(=O)N(Cc3csc4ccc(NS(C)(=O)=O)cc34)C[C@@H]2N1C(=O)NCc1ccccc1` [compound 246], the IC50 amounted to 6.59 ± 0.86 µM.

On to `C=CCN1CC(=O)N2[C@@H](Cc3ccc(O)cc3)C(=O)N(Cc3cccc(C(=O)N4CCCC4)c3)C[C@@H]2N1C(=O)NCc1ccccc1` [compound 189], for which the IC50 is 2.68 ± 0.48 µM.

Consider `C=CCN1CC(=O)N2[C@@H](Cc3ccc(OP(=O)(O)O)cc3)C(=O)N(Cc3cccc(OC)c3OC)C[C@@H]2N1C(=O)NCc1ccccc1` [compound 31], for which the IC50 is 0.54 ± 0.08 µM.

Staying with this experiment, now noted: TopFlash reporter gene assay, inhibition of Wnt signaling; read-out: RGA, IC50 (μM) TopF.
Turning to `C=CCN1CC(=O)N2[C@@H](Cc3ccc(O)cc3)C(=O)N(Cc3ccc(F)c4scnc34)C[C@@H]2N1C(=O)NCCc1ccccc1` [compound 178], the IC50 is 2.38 ± 0.75 µM.

In the case of `C=CCN1CC(=O)N2[C@@H](Cc3ccc(O)cc3)C(=O)N(Cc3csc4cc(NCc5ccccc5)ccc34)C[C@@H]2N1C(=O)NCc1ccccc1` [compound 138], the IC50 is 1.86 ± 0.38 µM.

On to `C=CCN1CC(=O)N2[C@@H](Cc3ccc(O)cc3)C(=O)N(Cc3csc4cc(NC(=O)NC)ccc34)C[C@@H]2N1C(=O)NCc1ccccc1` [compound 157], for which the IC50 was found to be 12.4 ± 2.36 µM.

On to `C=CCN1CC(=O)N2[C@@H](Cc3ccc(O)cc3)C(=O)N(Cc3ccc(F)c4scnc34)C[C@@H]2N1C(=O)NCc1cccs1` [compound 171], for which the IC50 was 2.1 ± 0.34 µM.

Take `C=CCN1CC(=O)N2[C@@H](Cc3ccc(O)cc3)C(=O)N(Cc3cccc(C(=O)NC4CCCC4)c3)C[C@@H]2N1C(=O)NCc1ccccc1` [compound 266]: the IC50 was determined as 9.43 ± 1.65 µM.
